# Source: the supplement of paper PMC10307832
# Tests used:
# Experiment in all cases: relative viability (nuclei count vs DMSO), 5 days (fraction); higher = more cells survive
# Dabrafenib = compound: CC(C)(C)c1nc(-c2cccc(NS(=O)(=O)c3c(F)cccc3F)c2F)c(-c2ccnc(N)n2)s1 [Dabrafenib]
# Procedure, shortened: (§1)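 Lung cancer cell lines were seeded into 1536-well plates, kept overnight at 37 °C and pinned with five library-drug doses (not always all listed) spaced by √10. After 5 days, nuclei were Hoechst-stained, imaged at 4× and counted with MetaXpress. Viability is treated-well nuclei over vehicle-well nuclei, taken as a median across plates. Plates needed control CV below 25% and at least one doubling.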
# VX-702 = compound: NC(=O)c1ccc(N(C(N)=O)c2c(F)cccc2F)nc1-c1ccc(F)cc1F [VX-702]
# Procedure, shortened: as §1
# VX-702 + Bortezomib = compound: NC(=O)c1ccc(N(C(N)=O)c2c(F)cccc2F)nc1-c1ccc(F)cc1F [VX-702] + CC(C)C[C@H](NC(=O)[C@H](Cc1ccccc1)NC(=O)c1cnccn1)B(O)O [Bortezomib] (partner 0.002 µM)
# Procedure, shortened: (§2)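 Lung cancer cell lines in 1536-well plates were dosed by pin tool the day after seeding, either with one drug alone or with a fixed anchor-drug dose plus five library-drug doses (not always all listed) in √10 steps. After 5 days, cells were fixed and their nuclei stained in one step (final 0.05% Triton X-100, 1% formaldehyde, 1 ug/ml Hoechst), then counted on 4× images. Relative viability is the nuclei count in treated wells divided by that in vehicle wells. Values are medians of duplicate plates.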
# Dabrafenib + Alpelisib = compound: CC(C)(C)c1nc(-c2cccc(NS(=O)(=O)c3c(F)cccc3F)c2F)c(-c2ccnc(N)n2)s1 [Dabrafenib] + Cc1nc(NC(=O)N2CCC[C@H]2C(N)=O)sc1-c1ccnc(C(C)(C)C(F)(F)F)c1 [Alpelisib] (partner 2 µM)
# Procedure, shortened: as §2
Cell Line,relative viability (Dabrafenib; 0.009487 µM),relative viability (Dabrafenib; 0.03 µM),relative viability (Dabrafenib; 0.09487 µM),relative viability (Dabrafenib; 0.3 µM),relative viability (VX-702; 0.02 µM),relative viability (VX-702; 0.2 µM),relative viability (VX-702; 0.6325 µM),relative viability (VX-702; 2 µM),relative viability (VX-702 + Bortezomib; first compound 0.02 µM),relative viability (VX-702 + Bortezomib; first compound 0.6325 µM),relative viability (VX-702 + Bortezomib; first compound 2 µM),relative viability (Dabrafenib + Alpelisib; first compound 0.003 µM),relative viability (Dabrafenib + Alpelisib; first compound 0.009487 µM),relative viability (Dabrafenib + Alpelisib; first compound 0.03 µM),relative viability (Dabrafenib + Alpelisib; first compound 0.09487 µM),relative viability (Dabrafenib + Alpelisib; first compound 0.3 µM),relative viability (Dabrafenib; 0.003 µM),relative viability (VX-702 + Bortezomib; first compound 0.2 µM)
SK-LU-1,1.03,0.661,0.681,0.762,1.15,1.04,1.1,1.17,1.15,1.19,1.8,0.915,1,0.869,0.714,0.691,–,–
EBC-1,0.987,0.895,0.533,0.391,1.08,0.999,0.968,1.08,0.622,0.587,0.603,0.71,0.649,0.563,0.264,0.24,0.856,0.545
LCLC-97TM1,0.914,1.01,0.508,0.756,0.938,0.982,0.996,0.937,0.526,0.667,0.709,–,0.228,0.303,–,0.258,–,0.592
